Experiment: Phase I safety: adverse events, adverse drug reactions, DLTs in patients with advanced solid tumors
Assay type: in vivo, human
From the text: This was a phase I, open-label, non-randomized, dose-escalating first-in-human study to evaluate the safety, pharmacokinetics, antitumor activity, pharmacodynamics, and pharmacogenomics of TAS-117 in patients with advanced solid tumors. The study had three phases: a dose escalation phase (DEP), a regimen modification phase (RMP), and a safety assessment phase (SAP). The treatment cycle on each regimen lasted 21 days. The DEP used an accelerated titration and 3 + 3 design. TAS-117 was administered orally once daily (QD) on an empty stomach (1 h before or 2 h after a meal). Dosing was determined based on a 4-week repeated oral-dose toxicology study in monkeys (data on file, Taiho Pharmaceutical Co., Ltd.); the highest non-severely toxic dose was 1.2 mg/kg/day, which was converted to 3.84 mg/body/day, or 2.4 mg/m^2. Therefore, the starting dose was determined to be ≤ 2.4 mg/m^2. At dose level 1, TAS-117 was administered at 2 mg QD (Day − 2), and the dose was increased to 4 mg QD after 2 days (Day 1). The RMP was conducted according to a 3 + 3 design. During this phase, the dose regimen was changed from QD administration to intermittent dosing of daily TAS-117 with 4 days on/3 days off. TAS-117 was administered on an empty stomach. Dose-limiting toxicities (DLTs) were evaluated in Cycle 1 of the DEP and RMP. […] The RD and regimen for the SAP were determined based on the safety, pharmacokinetics, pharmacodynamics, and antitumor activity profile determined in the DEP and RMP. During the SAP, the safety and preliminary efficacy profiles of TAS-117 were assessed at the RD and recommended regimen. Three cohorts were included in this assessment. Cohort 1 included patients with endometrial cancer with a PIK3CA mutation; cohort 2 included patients with endometrial cancer with an AKT1 mutation, AKT1 amplification, or AKT2 amplification; and cohort 3 included patients with ovarian clear cell carcinoma.
The primary endpoints were the proportion of patients who experienced DLTs in Cycle 1 of the DEP and RMP and the incidence of adverse events (AEs) and adverse drug reactions (ADRs) in the SAP. AEs and ADRs were coded using the Medical Dictionary for Regulatory Activities (MedDRA; version 24.1) and graded according to the National Cancer Institute Common Terminology Criteria for Adverse Events (CTCAE; version 4.03). Secondary endpoints were pharmacokinetic findings, changes in the ratio of phosphorylated PRAS40 (pPRAS40)/total PRAS40 from baseline, efficacy, and pharmacogenomics findings.

SMILES: C[C@]1(O)C[C@@](N)(c2ccc(-c3nc4n(c3-c3ccccc3)COc3ccncc3-4)cc2)C1 [TAS-117]
- Grade 3 maculopapular rash with treatment interruption and/or dose reduction (RMP dose level 5 (32 mg), Cycle 1 and Cycle 2): two of three patients
- DLT (grade 3 maculopapular rash) during Cycle 1 (RMP dose level 5 (32 mg), intermittent administration): one of the three patients
- Adverse drug reactions: ALT increased (RMP n = 10, All grade): 0 (0.0) n (%)
- Adverse drug reactions: AST increased (RMP n = 10, All grade): 1 (10.0) n (%)
- Adverse drug reactions: Any events (RMP n = 10, All grade): 10 (100.0) n (%)
- Adverse drug reactions: Blood AP increased (RMP n = 10, All grade): 1 (10.0) n (%)
- Adverse drug reactions: Decreased appetite (RMP n = 10, All grade): 5 (50.0) n (%)
- Adverse drug reactions: Diarrhea (RMP n = 10, All grade): 2 (20.0) n (%)
- Adverse drug reactions: Dry skin (RMP n = 10, All grade): 1 (10.0) n (%)
- Adverse drug reactions: GGT increased (RMP n = 10, All grade): 2 (20.0) n (%)
- Adverse drug reactions: GI disorders (RMP n = 10, All grade): 8 (80.0) n (%)
- Adverse drug reactions: General disorders and administration site conditions (RMP n = 10, All grade): 5 (50.0) n (%)
- Adverse drug reactions: Hyperglycemia (RMP n = 10, All grade): 3 (30.0) n (%)
- Adverse drug reactions: Investigations (RMP n = 10, All grade): 6 (60.0) n (%)
- Adverse drug reactions: Metabolism and nutrition disorders (RMP n = 10, All grade): 5 (50.0) n (%)
- Adverse drug reactions: Nausea (RMP n = 10, All grade): 3 (30.0) n (%)
- Adverse drug reactions: Neutrophil count decreased (RMP n = 10, All grade): 3 (30.0) n (%)
- Adverse drug reactions: Pruritus (RMP n = 10, All grade): 4 (40.0) n (%)
- Adverse drug reactions: Pyrexia (RMP n = 10, All grade): 4 (40.0) n (%)
- Adverse drug reactions: Rash maculo-papular (RMP n = 10, All grade): 9 (90.0) n (%)
- Adverse drug reactions: Skin and SC tissue disorders (RMP n = 10, All grade): 9 (90.0) n (%)
- Adverse drug reactions: Stomatitis (RMP n = 10, All grade): 8 (80.0) n (%)
- Adverse drug reactions: Vomiting (RMP n = 10, All grade): 1 (10.0) n (%)
- Adverse drug reactions: WBC count decreased (RMP n = 10, All grade): 3 (30.0) n (%)
- Adverse events: ALT increased (RMP n = 10, All grade): 1 (10.0) n (%)
- Adverse events: AST increased (RMP n = 10, All grade): 2 (20.0) n (%)
- Adverse events: Any events (RMP n = 10, All grade): 10 (100.0) n (%)
- Adverse events: Blood AP increased (RMP n = 10, All grade): 1 (10.0) n (%)
- Adverse events: Decreased appetite (RMP n = 10, All grade): 7 (70.0) n (%)
- Adverse events: Diarrhea (RMP n = 10, All grade): 3 (30.0) n (%)
- Adverse events: Dry skin (RMP n = 10, All grade): 1 (10.0) n (%)
- Adverse events: GGT increased (RMP n = 10, All grade): 2 (20.0) n (%)
- Adverse events: GI disorders (RMP n = 10, All grade): 9 (90.0) n (%)
- Adverse events: General disorders and administration site conditions (RMP n = 10, All grade): 9 (90.0) n (%)
- Adverse events: Hyperglycemia (RMP n = 10, All grade): 3 (30.0) n (%)
- Adverse events: Investigations (RMP n = 10, All grade): 7 (70.0) n (%)
- Adverse events: Metabolism and nutrition disorders (RMP n = 10, All grade): 7 (70.0) n (%)
- Adverse events: Nausea (RMP n = 10, All grade): 4 (40.0) n (%)
- Adverse events: Neutrophil count decreased (RMP n = 10, All grade): 3 (30.0) n (%)
- Adverse events: Pruritus (RMP n = 10, All grade): 4 (40.0) n (%)
- Adverse events: Pyrexia (RMP n = 10, All grade): 6 (60.0) n (%)
- Adverse events: Rash maculo-papular (RMP n = 10, All grade): 9 (90.0) n (%)
- Adverse events: Skin and SC tissue disorders (RMP n = 10, All grade): 9 (90.0) n (%)
- Adverse events: Stomatitis (RMP n = 10, All grade): 8 (80.0) n (%)
- Adverse events: Vomiting (RMP n = 10, All grade): 2 (20.0) n (%)
- Adverse events: WBC count decreased (RMP n = 10, All grade): 3 (30.0) n (%)
- Adverse drug reactions: ALT increased (RMP n = 10, ≥ Grade 3): 0 (0.0) n (%)
- Adverse drug reactions: AST increased (RMP n = 10, ≥ Grade 3): 0 (0.0) n (%)
- Adverse drug reactions: Any events (RMP n = 10, ≥ Grade 3): 6 (60.0) n (%)
- Adverse drug reactions: Blood AP increased (RMP n = 10, ≥ Grade 3): 0 (0.0) n (%)
- Adverse drug reactions: Decreased appetite (RMP n = 10, ≥ Grade 3): 0 (0.0) n (%)
- Adverse drug reactions: Diarrhea (RMP n = 10, ≥ Grade 3): 0 (0.0) n (%)
- Adverse drug reactions: Dry skin (RMP n = 10, ≥ Grade 3): 0 (0.0) n (%)
- Adverse drug reactions: GGT increased (RMP n = 10, ≥ Grade 3): 1 (10.0) n (%)
- Adverse drug reactions: GI disorders (RMP n = 10, ≥ Grade 3): 0 (0.0) n (%)
- Adverse drug reactions: General disorders and administration site conditions (RMP n = 10, ≥ Grade 3): 0 (0.0) n (%)
- Adverse drug reactions: Hyperglycemia (RMP n = 10, ≥ Grade 3): 2 (20.0) n (%)
- Adverse drug reactions: Investigations (RMP n = 10, ≥ Grade 3): 3 (30.0) n (%)
- Adverse drug reactions: Metabolism and nutrition disorders (RMP n = 10, ≥ Grade 3): 2 (20.0) n (%)
- Adverse drug reactions: Nausea (RMP n = 10, ≥ Grade 3): 0 (0.0) n (%)
- Adverse drug reactions: Neutrophil count decreased (RMP n = 10, ≥ Grade 3): 0 (0.0) n (%)
- Adverse drug reactions: Pruritus (RMP n = 10, ≥ Grade 3): 0 (0.0) n (%)
- Adverse drug reactions: Pyrexia (RMP n = 10, ≥ Grade 3): 0 (0.0) n (%)
- Adverse drug reactions: Rash maculo-papular (RMP n = 10, ≥ Grade 3): 3 (30.0) n (%)
- Adverse drug reactions: Skin and SC tissue disorders (RMP n = 10, ≥ Grade 3): 3 (30.0) n (%)
- Adverse drug reactions: Stomatitis (RMP n = 10, ≥ Grade 3): 0 (0.0) n (%)
- Adverse drug reactions: Vomiting (RMP n = 10, ≥ Grade 3): 0 (0.0) n (%)
- Adverse drug reactions: WBC count decreased (RMP n = 10, ≥ Grade 3): 2 (20.0) n (%)
- Adverse events: ALT increased (RMP n = 10, ≥ Grade 3): 0 (0.0) n (%)
- Adverse events: AST increased (RMP n = 10, ≥ Grade 3): 0 (0.0) n (%)
- Adverse events: Any events (RMP n = 10, ≥ Grade 3): 7 (70.0) n (%)
- Adverse events: Blood AP increased (RMP n = 10, ≥ Grade 3): 0 (0.0) n (%)
- Adverse events: Decreased appetite (RMP n = 10, ≥ Grade 3): 0 (0.0) n (%)
- Adverse events: Diarrhea (RMP n = 10, ≥ Grade 3): 1 (10.0) n (%)
- Adverse events: Dry skin (RMP n = 10, ≥ Grade 3): 0 (0.0) n (%)
- Adverse events: GGT increased (RMP n = 10, ≥ Grade 3): 1 (10.0) n (%)
- Adverse events: GI disorders (RMP n = 10, ≥ Grade 3): 2 (20.0) n (%)
- Adverse events: General disorders and administration site conditions (RMP n = 10, ≥ Grade 3): 0 (0.0) n (%)
- Adverse events: Hyperglycemia (RMP n = 10, ≥ Grade 3): 2 (20.0) n (%)
- Adverse events: Investigations (RMP n = 10, ≥ Grade 3): 3 (30.0) n (%)
- Adverse events: Metabolism and nutrition disorders (RMP n = 10, ≥ Grade 3): 2 (20.0) n (%)
- Adverse events: Nausea (RMP n = 10, ≥ Grade 3): 0 (0.0) n (%)
- Adverse events: Neutrophil count decreased (RMP n = 10, ≥ Grade 3): 0 (0.0) n (%)
- Adverse events: Pruritus (RMP n = 10, ≥ Grade 3): 0 (0.0) n (%)
- Adverse events: Pyrexia (RMP n = 10, ≥ Grade 3): 0 (0.0) n (%)
- Adverse events: Rash maculo-papular (RMP n = 10, ≥ Grade 3): 3 (30.0) n (%)
- Adverse events: Skin and SC tissue disorders (RMP n = 10, ≥ Grade 3): 3 (30.0) n (%)
- Adverse events: Stomatitis (RMP n = 10, ≥ Grade 3): 0 (0.0) n (%)
- Adverse events: Vomiting (RMP n = 10, ≥ Grade 3): 0 (0.0) n (%)
- Adverse events: WBC count decreased (RMP n = 10, ≥ Grade 3): 2 (20.0) n (%)
- Adverse drug reactions: ALT increased (SAP n = 43, All grade): 6 (14.0) n (%)
